Laboratory results published in PMC11594329, “Development of LAT1-Selective Nuclear Medicine Therapeutics Using Astatine-211” (International Journal of Molecular Sciences, 2024).

Tested on: LAT1-Tet/HEK293 cells
Assay: Uptake versus LAT1 expression level (Dox-induced) in LAT1-Tet/HEK293 cells
Assay type: cell-based
Conditions: collection 30 min after treatment
Protocol: Each cell line was seeded in 24 wells at 1 × 10^5 cells/mL and allowed to become sub-confluent on the day of the experiment. Cells were washed with PBS (-) (Fujifilm Wako Pure Chemical, Osaka, Japan) prior to the addition of the compound, which was then replaced with uptake buffer. After treating the cells with the same dose, they were collected at predetermined time points. The cell dose was measured using a γ-counter (Wizard^2 2480; PerkinElmer, Waltham, MA, USA), and the protein content of the sample was determined. Protein content was measured using the BCA method, and the dose was corrected using the protein content (Protein Assay BCA kit, Fujifilm Wako Pure Chemical).
Figure 2 Comparison of uptake between the labeled compounds. (A) Relation between uptake ratio and LAT1 expression level. Uptake ratios were compared between LAT1-Tet/HEK293 cells. The Y-axis represents the uptake ratio, and the X-axis is concentration of Doxycycline (Dox) (TaKaRa Bio, Shiga, Japan). The collection time was 30 min after treatment. The expression of LAT1 increased with increasing amounts of Dox. (B) Comparison of uptake in PANC-1 cell line. The collection times were 0.5, 1, 5 and 10 min after treatment.
The PANC-1 cell line was obtained from the RIKEN Cell Bank and maintained in RPMI 1640 medium (Fujifilm Wako Pure Chemical, Osaka, Japan) supplemented with 10% inactivated fetal bovine serum (Thermo Fisher Scientific, Waltham, MA, USA). Mock/HEK293, LAT1/HEK293, and LAT2/HEK203 cells were kindly provided by Dr. Kanai. Cell lines controlling LAT1 expression were constructed using the Tet-on system. HEK293 cells were obtained from the RIKEN Cell Bank and maintained in E-MEM (Fujifilm Wako Pure Chemical) supplemented with 10% inactivated fetal bovine serum (Thermo Fisher Scientific) and non-essential amino acids (Fujifilm Wako Pure Chemical). The expression vectors were purchased from VectorBuilder, Inc. (Kanagawa, Japan). The purified viral particle genes were transfected into HEK293 cells. Drug selection and cloning of the cell line (Tet-LAT1/HEK293) were performed. […]

SMILES: COc1ccc(C[C@](C)(N)C(=O)O)cc1[211At] [^211At-AAMT-O-Me-L, (S)-2-amino-3-(3-(astato-^211At)-4-methoxyphenyl)-2-methylpropanic acid]
- Uptake ratio versus LAT1 expression (doxycycline concentration): highest increase in uptake
